Columns and labels:
[1] = Solubility in MPK; type: physicochemical; conditions: solvent MPK

| Solubility in MPK [1] [%] | melting point [°C] | SMILES |
| --- | --- | --- |
| 33.2 | 54 | C=CC(=O)OCCCCCCOc1ccc(C(=O)Oc2ccc(OC(=O)c3ccc(OCCCCCCOC(=O)C=C)cc3)c(C(=O)OCCOCCOc3ccc(-c4ccc(C#N)cc4)cc3)c2)cc1 |
| 7.2 | 72 | C=CC(=O)OCCCCCCOc1ccc(C(=O)Oc2ccc(OC(=O)c3ccc(OCCCCCCOC(=O)C=C)cc3)c(C(=O)OCCCCCCCCOc3ccc(-c4ccc(C#N)cc4)cc3)c2)cc1 |

Source: patent US6733690B1, “Laterally substituted curable liquid crystals” (Rolic AG, priority 1999, dated 2004)
